Measurements published in paper PMC8550792, “Evolution of kinase polypharmacology across HSP90 drug discovery” (Cell Chemical Biology, 2021).

Tests used:
Assay in all cases: biochemical
Type in all cases: biochemical
382 unique human kinases [1] = target: T1, 382 unique human kinases (Homo sapiens, UniProt P08581, Y1230D); conditions: c-MET (Y1230D), compound at 10 uM, duplicate values; for remaining activity at 10 µM: read-out: % Enzyme Activity (relative to DMSO controls)
T1 construct: purchased Reaction Biology (HotSpot contract assay)

382 unique human kinases [2] = target: T2, 382 unique human kinases (Homo sapiens, UniProt P07949, R813Q); conditions: RET (R813Q), 10 uM; for remaining activity at 10 µM: read-out: % Enzyme Activity (relative to DMSO controls)
T2 construct: purchased Reaction Biology (HotSpot contract assay)

382 unique human kinases [3] = target: T3, 382 unique human kinases (Homo sapiens, UniProt Q6P3R8); conditions: NEK5, 10 uM; for remaining activity at 10 µM: read-out: % Enzyme Activity (relative to DMSO controls)
T3 construct: purchased Reaction Biology (HotSpot contract assay)
T3 sequence (Q6P3R8 1-708): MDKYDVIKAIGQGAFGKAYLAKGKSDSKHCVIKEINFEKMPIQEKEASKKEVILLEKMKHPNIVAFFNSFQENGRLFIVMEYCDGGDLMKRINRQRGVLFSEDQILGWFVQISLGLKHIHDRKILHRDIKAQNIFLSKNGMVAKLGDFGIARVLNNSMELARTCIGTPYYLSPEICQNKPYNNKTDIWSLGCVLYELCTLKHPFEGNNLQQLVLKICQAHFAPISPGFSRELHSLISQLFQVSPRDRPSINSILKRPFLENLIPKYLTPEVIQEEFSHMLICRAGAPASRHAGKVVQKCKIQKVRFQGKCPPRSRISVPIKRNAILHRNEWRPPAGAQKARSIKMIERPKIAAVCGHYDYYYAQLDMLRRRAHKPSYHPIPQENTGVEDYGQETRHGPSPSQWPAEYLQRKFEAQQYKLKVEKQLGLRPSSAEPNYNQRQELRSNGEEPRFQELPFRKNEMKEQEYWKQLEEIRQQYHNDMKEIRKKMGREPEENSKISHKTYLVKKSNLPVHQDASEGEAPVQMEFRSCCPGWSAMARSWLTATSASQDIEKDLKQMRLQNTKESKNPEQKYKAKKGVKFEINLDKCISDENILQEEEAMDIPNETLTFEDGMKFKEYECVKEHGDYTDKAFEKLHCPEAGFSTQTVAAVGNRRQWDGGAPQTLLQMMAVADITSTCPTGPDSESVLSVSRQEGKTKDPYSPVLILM

382 unique human kinases [4] = target: T4, 382 unique human kinases (Homo sapiens, UniProt Q8TF76); conditions: Haspin, 10 uM; for remaining activity at 10 µM: read-out: % Enzyme Activity (relative to DMSO controls)
T4 construct: purchased Reaction Biology (HotSpot contract assay)
T4 sequence (Q8TF76 1-798): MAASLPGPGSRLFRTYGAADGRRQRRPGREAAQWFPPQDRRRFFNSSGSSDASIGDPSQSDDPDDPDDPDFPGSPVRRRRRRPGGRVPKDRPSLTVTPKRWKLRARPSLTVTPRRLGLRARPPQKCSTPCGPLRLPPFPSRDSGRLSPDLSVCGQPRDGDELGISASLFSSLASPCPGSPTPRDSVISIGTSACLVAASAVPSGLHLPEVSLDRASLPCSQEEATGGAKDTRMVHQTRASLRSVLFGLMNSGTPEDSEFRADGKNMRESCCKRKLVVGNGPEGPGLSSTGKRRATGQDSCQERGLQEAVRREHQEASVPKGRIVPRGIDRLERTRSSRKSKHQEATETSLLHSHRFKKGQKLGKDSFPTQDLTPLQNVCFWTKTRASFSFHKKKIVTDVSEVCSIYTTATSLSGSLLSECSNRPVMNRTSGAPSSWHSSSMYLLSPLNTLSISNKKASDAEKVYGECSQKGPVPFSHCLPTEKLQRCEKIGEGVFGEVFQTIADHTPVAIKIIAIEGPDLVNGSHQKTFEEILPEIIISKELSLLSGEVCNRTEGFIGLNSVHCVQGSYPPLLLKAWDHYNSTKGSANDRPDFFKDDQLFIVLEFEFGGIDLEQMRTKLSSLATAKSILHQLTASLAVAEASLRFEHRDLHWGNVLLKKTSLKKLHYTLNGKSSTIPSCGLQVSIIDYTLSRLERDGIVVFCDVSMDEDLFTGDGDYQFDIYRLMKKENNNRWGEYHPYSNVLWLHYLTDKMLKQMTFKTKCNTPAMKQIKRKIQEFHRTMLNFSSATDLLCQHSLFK

382 unique human kinases [5] = target: T5, 382 unique human kinases (Homo sapiens, UniProt P00533, L858R/T790M); conditions: EGFR (L858R, T790M), 10 uM; for remaining activity at 10 µM: read-out: % Enzyme Activity (relative to DMSO controls)
T5 construct: purchased Reaction Biology (HotSpot contract assay)

382 unique human kinases [6] = target: T6, 382 unique human kinases (Homo sapiens, UniProt Q5VT25); conditions: kinase MRCKa/CDC42BPA, compound 10 uM; for remaining activity at 10 µM: read-out: % Enzyme Activity (relative to DMSO controls)
T6 construct: purchased Reaction Biology (HotSpot contract assay)

382 unique human kinases [7] = target: T7, 382 unique human kinases (Homo sapiens, UniProt P36897); conditions: kinase ALK5/TGFBR1, compound 10 uM; for remaining activity at 10 µM: read-out: % Enzyme Activity (relative to DMSO controls)
T7 construct: purchased Reaction Biology (HotSpot contract assay)
T7 sequence (P36897 34-503): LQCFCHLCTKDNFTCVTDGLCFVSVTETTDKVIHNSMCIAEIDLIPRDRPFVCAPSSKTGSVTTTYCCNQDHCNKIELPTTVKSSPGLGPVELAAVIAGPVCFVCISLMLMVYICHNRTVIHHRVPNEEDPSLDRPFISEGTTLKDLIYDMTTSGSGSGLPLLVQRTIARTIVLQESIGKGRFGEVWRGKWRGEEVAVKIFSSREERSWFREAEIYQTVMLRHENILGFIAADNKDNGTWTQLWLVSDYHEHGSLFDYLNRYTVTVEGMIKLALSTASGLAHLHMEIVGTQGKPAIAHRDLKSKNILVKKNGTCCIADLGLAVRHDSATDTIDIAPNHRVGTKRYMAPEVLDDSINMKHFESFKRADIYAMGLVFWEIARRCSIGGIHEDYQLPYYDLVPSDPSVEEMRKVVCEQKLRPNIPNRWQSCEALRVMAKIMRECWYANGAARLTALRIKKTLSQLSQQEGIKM

382 unique human kinases [8] = target: T8, 382 unique human kinases (Homo sapiens, UniProt P51812); conditions: RSK2, 10 uM; for remaining activity at 10 µM: read-out: % Enzyme Activity (relative to DMSO controls)
T8 construct: purchased Reaction Biology (HotSpot contract assay)

382 unique human kinases [9] = target: T9, 382 unique human kinases (Homo sapiens, UniProt Q15746); conditions: MLCK/MYLK, [ATP] 30 µM, compound 10 uM; for remaining activity at 10 µM: read-out: % Enzyme Activity (relative to DMSO controls)
T9 construct: purchased Reaction Biology (HotSpot contract assay)

382 unique human kinases [10] = target: T10, 382 unique human kinases (Homo sapiens, UniProt P00533, DEL747-749); conditions: EGFR (d747-749), 10 uM; for remaining activity at 10 µM: read-out: % Enzyme Activity (relative to DMSO controls)
T10 construct: purchased Reaction Biology (HotSpot contract assay)

382 unique human kinases [11] = target: T11, 382 unique human kinases (Homo sapiens, UniProt Q07912); conditions: ACK1, [ATP] 100 µM, compound 10 uM; for remaining activity at 10 µM: read-out: % Enzyme Activity (relative to DMSO controls)
T11 construct: purchased Reaction Biology (HotSpot contract assay)

382 unique human kinases [12] = target: T12, 382 unique human kinases (Homo sapiens, UniProt Q9UM73, F1174S); conditions: ALK (F1174S), [ATP] 20 µM, compound 10 uM; for remaining activity at 10 µM: read-out: % Enzyme Activity (relative to DMSO controls)
T12 construct: purchased Reaction Biology (HotSpot contract assay)
T12 sequence (Q9UM73 19-1620 F1174S): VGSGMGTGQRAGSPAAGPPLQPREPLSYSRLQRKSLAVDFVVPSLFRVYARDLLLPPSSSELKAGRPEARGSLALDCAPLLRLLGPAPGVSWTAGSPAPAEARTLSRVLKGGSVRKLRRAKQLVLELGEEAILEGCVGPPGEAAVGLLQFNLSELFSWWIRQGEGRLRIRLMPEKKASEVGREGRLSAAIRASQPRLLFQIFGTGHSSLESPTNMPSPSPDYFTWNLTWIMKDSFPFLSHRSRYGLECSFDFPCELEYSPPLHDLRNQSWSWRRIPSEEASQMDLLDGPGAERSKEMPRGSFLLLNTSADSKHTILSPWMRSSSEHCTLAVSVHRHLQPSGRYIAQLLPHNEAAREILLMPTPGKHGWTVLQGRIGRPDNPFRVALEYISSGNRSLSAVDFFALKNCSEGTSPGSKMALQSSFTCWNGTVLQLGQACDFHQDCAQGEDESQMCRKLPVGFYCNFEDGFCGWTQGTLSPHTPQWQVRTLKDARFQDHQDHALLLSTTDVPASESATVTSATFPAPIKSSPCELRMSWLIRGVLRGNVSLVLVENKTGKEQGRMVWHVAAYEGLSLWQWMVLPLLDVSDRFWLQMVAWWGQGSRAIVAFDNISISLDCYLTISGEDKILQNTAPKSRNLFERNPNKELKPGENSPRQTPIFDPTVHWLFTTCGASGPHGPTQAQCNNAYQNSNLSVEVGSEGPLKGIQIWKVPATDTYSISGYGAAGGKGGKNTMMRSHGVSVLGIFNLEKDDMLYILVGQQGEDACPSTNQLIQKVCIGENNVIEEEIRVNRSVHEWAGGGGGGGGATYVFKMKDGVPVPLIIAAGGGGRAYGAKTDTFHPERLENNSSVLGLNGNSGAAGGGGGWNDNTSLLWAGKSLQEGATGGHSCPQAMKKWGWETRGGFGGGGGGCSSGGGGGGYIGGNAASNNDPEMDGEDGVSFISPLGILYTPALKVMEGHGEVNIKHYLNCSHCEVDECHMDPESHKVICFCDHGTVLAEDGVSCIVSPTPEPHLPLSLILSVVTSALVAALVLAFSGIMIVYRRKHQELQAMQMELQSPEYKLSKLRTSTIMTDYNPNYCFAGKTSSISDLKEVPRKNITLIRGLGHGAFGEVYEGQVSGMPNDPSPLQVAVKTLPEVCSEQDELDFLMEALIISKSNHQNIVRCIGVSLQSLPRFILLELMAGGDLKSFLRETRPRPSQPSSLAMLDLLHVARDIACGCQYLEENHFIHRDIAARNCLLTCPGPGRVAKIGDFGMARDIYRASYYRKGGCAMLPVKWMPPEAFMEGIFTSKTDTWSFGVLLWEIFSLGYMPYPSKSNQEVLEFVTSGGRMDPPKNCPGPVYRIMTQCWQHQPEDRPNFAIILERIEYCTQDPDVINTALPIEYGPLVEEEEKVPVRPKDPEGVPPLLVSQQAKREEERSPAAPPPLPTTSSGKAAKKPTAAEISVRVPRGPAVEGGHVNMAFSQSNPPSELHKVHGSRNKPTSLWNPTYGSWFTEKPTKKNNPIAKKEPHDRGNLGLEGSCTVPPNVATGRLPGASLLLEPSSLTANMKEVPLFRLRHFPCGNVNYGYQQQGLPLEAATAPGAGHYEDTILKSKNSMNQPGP

T11 sequence (Q07912 whole entry): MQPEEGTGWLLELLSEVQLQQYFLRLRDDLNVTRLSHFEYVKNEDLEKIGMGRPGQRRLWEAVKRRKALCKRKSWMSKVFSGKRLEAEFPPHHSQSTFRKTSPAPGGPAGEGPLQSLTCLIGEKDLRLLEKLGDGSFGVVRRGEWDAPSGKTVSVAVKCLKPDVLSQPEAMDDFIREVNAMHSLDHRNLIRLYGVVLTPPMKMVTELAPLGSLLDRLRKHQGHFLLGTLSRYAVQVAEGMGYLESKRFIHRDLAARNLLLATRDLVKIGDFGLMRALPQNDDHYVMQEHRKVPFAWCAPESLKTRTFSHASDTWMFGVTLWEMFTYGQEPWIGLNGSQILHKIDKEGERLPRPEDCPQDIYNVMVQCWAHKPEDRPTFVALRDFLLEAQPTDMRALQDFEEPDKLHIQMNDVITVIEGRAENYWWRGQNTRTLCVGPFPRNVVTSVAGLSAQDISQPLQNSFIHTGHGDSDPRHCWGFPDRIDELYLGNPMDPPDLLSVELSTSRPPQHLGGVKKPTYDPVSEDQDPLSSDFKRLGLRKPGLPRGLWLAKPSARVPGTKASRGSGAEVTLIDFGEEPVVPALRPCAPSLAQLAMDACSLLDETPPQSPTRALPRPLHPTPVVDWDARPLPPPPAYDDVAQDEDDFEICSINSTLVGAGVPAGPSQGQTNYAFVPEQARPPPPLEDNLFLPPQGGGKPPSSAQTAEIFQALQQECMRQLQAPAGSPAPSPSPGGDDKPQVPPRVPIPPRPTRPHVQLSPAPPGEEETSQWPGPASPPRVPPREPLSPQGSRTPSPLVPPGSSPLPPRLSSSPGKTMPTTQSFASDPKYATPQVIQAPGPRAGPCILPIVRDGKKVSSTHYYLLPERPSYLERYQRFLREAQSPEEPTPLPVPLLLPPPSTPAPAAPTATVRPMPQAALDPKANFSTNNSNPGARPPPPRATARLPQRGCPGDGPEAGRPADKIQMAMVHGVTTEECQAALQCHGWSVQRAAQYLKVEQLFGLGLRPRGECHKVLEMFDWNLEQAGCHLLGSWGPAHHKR
T9 sequence (Q15746 whole entry): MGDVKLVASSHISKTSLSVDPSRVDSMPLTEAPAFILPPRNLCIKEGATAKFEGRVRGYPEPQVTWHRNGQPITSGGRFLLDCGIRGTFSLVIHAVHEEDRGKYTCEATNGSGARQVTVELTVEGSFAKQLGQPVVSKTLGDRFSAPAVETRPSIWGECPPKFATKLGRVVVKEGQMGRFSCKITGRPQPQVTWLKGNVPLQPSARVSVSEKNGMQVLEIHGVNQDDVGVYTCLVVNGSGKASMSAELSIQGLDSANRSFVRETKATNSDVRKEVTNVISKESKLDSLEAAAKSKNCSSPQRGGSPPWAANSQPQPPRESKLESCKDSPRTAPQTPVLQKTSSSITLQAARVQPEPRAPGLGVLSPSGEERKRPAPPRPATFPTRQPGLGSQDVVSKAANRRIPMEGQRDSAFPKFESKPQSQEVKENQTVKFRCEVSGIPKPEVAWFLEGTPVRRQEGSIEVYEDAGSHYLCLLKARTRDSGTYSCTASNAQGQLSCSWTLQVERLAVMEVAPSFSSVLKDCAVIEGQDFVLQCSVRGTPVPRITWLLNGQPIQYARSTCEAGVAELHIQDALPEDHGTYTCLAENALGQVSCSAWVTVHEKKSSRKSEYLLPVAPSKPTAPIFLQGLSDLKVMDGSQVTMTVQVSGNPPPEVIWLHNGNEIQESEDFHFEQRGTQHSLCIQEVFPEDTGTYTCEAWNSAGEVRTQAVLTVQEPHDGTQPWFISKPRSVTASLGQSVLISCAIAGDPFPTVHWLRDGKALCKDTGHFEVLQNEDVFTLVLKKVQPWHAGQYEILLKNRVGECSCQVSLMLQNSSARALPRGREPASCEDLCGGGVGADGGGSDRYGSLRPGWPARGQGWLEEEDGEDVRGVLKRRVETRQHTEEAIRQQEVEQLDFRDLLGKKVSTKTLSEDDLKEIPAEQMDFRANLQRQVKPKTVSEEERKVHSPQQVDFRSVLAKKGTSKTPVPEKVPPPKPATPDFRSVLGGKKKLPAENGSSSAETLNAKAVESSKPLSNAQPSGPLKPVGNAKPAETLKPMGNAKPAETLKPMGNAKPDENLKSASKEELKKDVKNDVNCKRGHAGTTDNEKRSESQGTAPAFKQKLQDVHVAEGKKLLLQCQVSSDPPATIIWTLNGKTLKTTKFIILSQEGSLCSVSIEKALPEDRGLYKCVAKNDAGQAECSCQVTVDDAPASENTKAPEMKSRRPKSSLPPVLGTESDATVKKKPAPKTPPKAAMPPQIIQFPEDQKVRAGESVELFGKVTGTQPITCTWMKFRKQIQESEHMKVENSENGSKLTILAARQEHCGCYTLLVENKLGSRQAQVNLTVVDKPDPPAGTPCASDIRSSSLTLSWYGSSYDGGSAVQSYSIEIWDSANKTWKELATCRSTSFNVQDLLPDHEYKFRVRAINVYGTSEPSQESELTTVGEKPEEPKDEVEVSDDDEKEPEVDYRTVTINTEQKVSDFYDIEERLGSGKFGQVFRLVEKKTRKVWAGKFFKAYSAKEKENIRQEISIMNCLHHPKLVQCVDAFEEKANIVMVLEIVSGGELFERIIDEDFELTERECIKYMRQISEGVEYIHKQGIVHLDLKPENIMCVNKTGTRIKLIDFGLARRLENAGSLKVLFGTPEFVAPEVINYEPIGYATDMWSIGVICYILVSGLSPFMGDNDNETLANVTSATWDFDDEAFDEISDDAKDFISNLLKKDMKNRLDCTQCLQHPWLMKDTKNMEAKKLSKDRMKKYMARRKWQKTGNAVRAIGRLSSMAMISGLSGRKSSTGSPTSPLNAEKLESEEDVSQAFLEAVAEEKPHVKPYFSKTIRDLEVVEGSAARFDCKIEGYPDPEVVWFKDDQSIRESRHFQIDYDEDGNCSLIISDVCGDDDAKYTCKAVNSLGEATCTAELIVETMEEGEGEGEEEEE

SMILES	remaining activity at 10 µM (382 unique human kinases [1]) [%]	remaining activity at 10 µM (382 unique human kinases [2]) [%]	remaining activity at 10 µM (382 unique human kinases [3]) [%]	remaining activity at 10 µM (382 unique human kinases [4]) [%]	remaining activity at 10 µM (382 unique human kinases [5]) [%]	remaining activity at 10 µM (382 unique human kinases [6]) [%]	remaining activity at 10 µM (382 unique human kinases [7]) [%]	remaining activity at 10 µM (382 unique human kinases [8]) [%]	remaining activity at 10 µM (382 unique human kinases [9]) [%]	remaining activity at 10 µM (382 unique human kinases [10]) [%]	remaining activity at 10 µM (382 unique human kinases [11]) [%]	remaining activity at 10 µM (382 unique human kinases [12]) [%]	other results
CC(C)c1cc(-c2n[nH]c(=O)n2-c2ccc3c(ccn3C)c2)c(O)cc1O [Ganetespib (STA9090)]	109	78	105	75.3	91.5	87.6	90.1	78.8	–	–	–	–	–
CC(C)c1cc(-c2n[nH]c(=O)n2-c2ccc3c(ccn3C)c2)c(O)cc1O [Ganetespib]	–	–	–	–	–	–	–	–	38.6	96.5	47	50.7	–
CCNC(=O)c1noc(-c2cc(C(C)C)c(O)cc2O)c1-c1ccc(CN2CCOCC2)cc1 [Luminespib (AUY-922)]	110	105	70.4	93	73.8	99.7	94.7	93.5	–	–	–	–	% Enzyme Activity (relative to DMSO controls) (382 unique human kinases [1]): 109.18%; % Enzyme Activity (relative to DMSO controls) (382 unique human kinases [2]): 103.53%; % Enzyme Activity (relative to DMSO controls) (382 unique human kinases [3]): 66.42%; % Enzyme Activity (relative to DMSO controls) (382 unique human kinases [4]): 89.64%; % Enzyme Activity (relative to DMSO controls) (382 unique human kinases [5]): 61.22%; % Enzyme Activity (relative to DMSO controls) (382 unique human kinases [6]): 98.43%; % Enzyme Activity (relative to DMSO controls) (382 unique human kinases [7]): 93.53%; % Enzyme Activity (relative to DMSO controls) (382 unique human kinases [8]): 92.24%
CCNC(=O)c1noc(-c2cc(C(C)C)c(O)cc2O)c1-c1ccc(CN2CCOCC2)cc1 [Luminespib]	–	–	–	–	–	–	–	–	97.5	99.3	89.5	98.7	% Enzyme Activity (relative to DMSO controls) (382 unique human kinases [9]): 95.43%; % Enzyme Activity (relative to DMSO controls) (382 unique human kinases [10]): 98.26%; % Enzyme Activity (relative to DMSO controls) (382 unique human kinases [11]): 88.83%; % Enzyme Activity (relative to DMSO controls) (382 unique human kinases [12]): 97.77%
